Data: patent US12310975B2, “Modulators of BCL6 proteolysis and associated methods of use” (Arvinas Operations, Inc., priority 2019, dated 2025)
Read-outs that look alike come from different tables or passages of the source.

Biological target: BCL6 (Homo sapiens (Human), UniProt P41182)
Assay: Immunofluorescence high content imaging of BCL6 degradation in T47D cells
Assay type: cell-based
Details: for DC50: class symbols A-D, read-out: EC50 (nM)*
Procedure, shortened: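 Read-out is BCL6 immunofluorescence quantified by high-content imaging (10×, 4 fields per well) of T47D breast cancer cells. Cells were exposed for 3 days to degrader in an 11-point, 3-fold serial dilution reaching a final top concentration of 0.1 or 1 μM.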

**Q.** With `CNC(=O)COc1cc2cc(Nc3nc(N4CCC(Cc5cn(CCOCCOCCOCCOCCOCC(=O)N[C@H](C(=O)N6C[C@H](O)C[C@H]6C(=O)N[C@@H](C)c6ccc(-c7scnc7C)cc6)C(C)(C)C)nn5)CC4)ncc3Cl)ccc2n(C)c1=O` [compound 124, (2S,4R)-1-((S)-2-(tert-butyl)-20-(4-((1-(5-chloro-4-((1-methyl-3-(2-(methylamino)-2-oxoethoxy)-2-oxo-1,2-dihydroquinolin-6-yl)amino)pyrimidin-2-yl)piperidin-4-yl)methyl)-1H-1,2,3-triazol-1-yl)-4-oxo-6,9,12,15,18-pentaoxa-3-azaicosanoyl)-4-hydroxy-N-((S)-1-(4-(4-methylthiazol-5-yl)phenyl)ethyl)pyrrolidine-2-carboxamide] as the molecule, how does the DC50 read?
**A.** 50 to 100 nM

**Q.** With `CNC(=O)COc1cc2cc(Nc3nc(N4CCC(CN5CCC(n6cnc7c(C(=O)NC8CCC(=O)NC8=O)cccc76)CC5)CC4)ncc3Cl)ccc2n(C)c1=O` (stereo not shown) [compound 283, 1-[1-({1-[5-chloro-4-({1-methyl-3-[(methylcarbamoyl)methoxy]-2-oxo-1,2-dihydroquinolin-6-yl}amino)pyrimidin-2-yl]piperidin-4-yl}methyl)piperidin-4-yl]-N-(2,6-dioxopiperidin-3-yl)-1H-1,3-benzodiazole-4-carboxamide] as the molecule, how does the IC50 read?
**A.** ≥ 100 nM

**Q.** How did the DC50 turn out when `CN1C(=O)CCc2cc(Nc3cc(N4CCC(CN5CCN(c6ccc7c(c6)C(=O)N(C6CCC(=O)NC6=O)C7=O)CC5)CC4)c([N+](=O)[O-])cc3Cl)ccc21` (stereo not shown) [compound 77, 5-(4-((1-(4-chloro-5-((1-methyl-2-oxo-1,2,3,4-tetrahydroquinolin-6-yl)amino)-2-nitrophenyl)piperidin-4-yl)methyl)piperazin-1-yl)-2-(2,6-dioxopiperidin-3-yl)isoindoline-1,3-dione] was run?
**A.** > 100 nM

**Q.** `CNC(=O)COc1cc2cc(Nc3nc(N4CCC(c5cn(CCOCCOCCOCCOc6ccc7c(c6)C(=O)N(C6CCC(=O)NC6=O)C7=O)nn5)CC4)ncc3Cl)ccc2n(C)c1=O` (stereo not shown) [compound 129, 2-((6-((5-chloro-2-(4-(1-(2-(2-(2-(2-((2-(2,6-dioxopiperidin-3-yl)-1,3-dioxoisoindolin-5-yl)oxy)ethoxy)ethoxy)ethoxy)ethyl)-1H-1,2,3-triazol-4-yl)piperidin-1-yl)pyrimidin-4-yl)amino)-1-methyl-2-oxo-1,2-dihydroquinolin-3-yl)oxy)-N-methylacetamide] was tested. Which DC50 did it give?
**A.** > 100 nM

**Q.** Which DC50 does the source give for `CNC(=O)COc1cc2cc(Nc3nc(N4CCC(OCCOCCOCCOc5ccccc5OCCOc5ccc6c(c5)CN(C5CCC(=O)NC5=O)C6=O)CC4)ncc3Cl)ccc2n(C)c1=O` (stereo not shown) [compound 110, 2-((6-((5-chloro-2-(4-(2-(2-(2-(2-(2-((2-(2,6-dioxopiperidin-3-yl)-1-oxoisoindolin-5-yl)oxy)ethoxy)phenoxy)ethoxy)ethoxy)ethoxy)piperidin-1-yl)pyrimidin-4-yl)amino)-1-methyl-2-oxo-1,2-dihydroquinolin-3-yl)oxy)-N-methylacetamide] here?
**A.** > 100 nM

**Q.** `CC[C@@H]1CN(c2ncc(Cl)c(Nc3ccc4c(c3)cc(OCC(=O)NC)c(=O)n4C(C)C)n2)C[C@@H](COc2ccc3c(c2)C(=O)N(C2CCC(=O)NC2=O)C3=O)O1` (stereo partly drawn) [compound 389, 2-{[6-({5-chloro-2-[(2S,6R)-2-({[2-(2,6-dioxopiperidin-3-yl)-1,3-dioxo-2,3-dihydro-1H-isoindol-5-yl]oxy}methyl)-6-ethylmorpholin-4-yl]pyrimidin-4-yl}amino)-2-oxo-1-(propan-2-yl)-1,2-dihydroquinolin-3-yl]oxy}-N-methylacetamide] was tested. Which Dmax (T47D cells) did it give?
**A.** < 50%

**Q.** And the IC50 (T47D cells)?
**A.** 10 to 50 nM

**Q.** With `CNC(=O)COc1cc2cc(Nc3nc(N4CCC(OCc5ccccc5OCCCCOCCOCCOc5ccc6c(c5)CN(C5CCC(=O)NC5=O)C6=O)CC4)ncc3Cl)ccc2n(C)c1=O` (stereo not shown) [compound 136, 2-((6-((5-chloro-2-(4-((2-(4-(2-(2-((2-(2,6-dioxopiperidin-3-yl)-1-oxoisoindolin-5-yl)oxy)ethoxy)ethoxy)butoxy)benzyl)oxy)piperidin-1-yl)pyrimidin-4-yl)amino)-1-methyl-2-oxo-1,2-dihydroquinolin-3-yl)oxy)-N-methylacetamide] as the molecule, how does the DC50 read?
**A.** > 100 nM

**Q.** Which IC50 does the source give for `CNC(=O)COc1cc2cc(Nc3nc(N4CCC(CN5CCC(c6coc(C(=O)NC7CCC(=O)NC7=O)c6)CC5)CC4)ncc3Cl)ccc2n(C)c1=O` (stereo not shown) [compound 286, 4-[1-({1-[5-chloro-4-({1-methyl-3-[(methylcarbamoyl)methoxy]-2-oxo-1,2-dihydroquinolin-6-yl}amino)pyrimidin-2-yl]piperidin-4-yl}methyl)piperidin-4-yl]-N-(2,6-dioxopiperidin-3-yl)furan-2-carboxamide] here?
**A.** 50 to 100 nM

**Q.** And the Dmax (T47D)?
**A.** < 50%

**Q.** What does the source list for `CCn1c(=O)c(OCC(=O)NC)cc2cc(Nc3nc(N4CCC(OCC5CCN(c6cccc7c6C(=O)N(C6CCC(=O)NC6=O)C7=O)CC5)CC4)ncc3Cl)ccc21` (stereo not shown) [compound 330, 2-{[6-({5-chloro-2-[4-({1-[2-(2,6-dioxopiperidin-3-yl)-1,3-dioxo-2,3-dihydro-1H-isoindol-4-yl]piperidin-4-yl}methoxy)piperidin-1-yl]pyrimidin-4-yl}amino)-1-ethyl-2-oxo-1,2-dihydroquinolin-3-yl]oxy}-N-methylacetamide]?
**A.** Dmax (T47D cells): 50 to 70%; IC50 (T47D cells): < 10 nM

**Q.** With `CNC(=O)COc1cc2cc(Nc3nc(N4CCCC(OC5CCN(c6ccc7c(c6)C(=O)N(C6CCC(=O)NC6=O)C7=O)CC5)CC4)ncc3Cl)ccc2n(C)c1=O` (stereo not shown) [compound 241, 2-((6-((5-chloro-2-(4-((1-(2-(2,6-dioxopiperidin-3-yl)-1,3-dioxoisoindolin-5-yl)piperidin-4-yl)oxy)azepan-1-yl)pyrimidin-4-yl)amino)-1-methyl-2-oxo-1,2-dihydroquinolin-3-yl)oxy)-N-methylacetamide] as the molecule, how does the IC50 read?
**A.** 10 to 50 nM

**Q.** And the Dmax (T47D)?
**A.** < 50%

**Q.** `CNC(=O)COc1cc2cc(Nc3nc(N4CCC(OC5CCN(c6cccc7c6C(=O)N(C6CCC(=O)NC6=O)C7=O)CC5)CC4)ncc3Cl)ccc2n(C)c1=O` (stereo not shown) [compound 264, 2-((6-((5-chloro-2-(4-((1-(2-(2,6-dioxopiperidin-3-yl)-1,3-dioxoisoindolin-4-yl)piperidin-4-yl)oxy)piperidin-1-yl)pyrimidin-4-yl)amino)-1-methyl-2-oxo-1,2-dihydroquinolin-3-yl)oxy)-N-methylacetamide] was tested. Which IC50 did it give?
**A.** < 10 nM

**Q.** What about the Dmax (T47D) of the same molecule?
**A.** ≥ 70%

**Q.** For `CCCCn1c(=O)c(OCC(=O)NC)cc2cc(Nc3nc(N4CCN(CC5CCN(c6ccc7c(c6)C(=O)N(C6CCC(=O)NC6=O)C7=O)CC5)CC4)ncc3Cl)ccc21` (stereo not shown) [compound 317, 2-{[1-butyl-6-({5-chloro-2-[4-({1-[2-(2,6-dioxopiperidin-3-yl)-1,3-dioxo-2,3-dihydro-1H-isoindol-5-yl]piperidin-4-yl}methyl)piperazin-1-yl]pyrimidin-4-yl}amino)-2-oxo-1,2-dihydroquinolin-3-yl]oxy}-N-methylacetamide], which Dmax (T47D cells) is on record?
**A.** 50 to 70%

**Q.** And the IC50 (T47D cells)?
**A.** < 10 nM

**Q.** How did the IC50 turn out when `CC(=O)COc1cc2cc(Nc3nc(C#CC4CCCN(c5ccc6c(c5)C(=O)N(C5CCC(=O)NC5=O)C6=O)C4)ncc3Cl)ccc2n(C)c1=O` (stereo not shown) [compound 181, 5-(3-((5-chloro-4-((1-methyl-2-oxo-3-(2-oxopropoxy)-1,2-dihydroquinolin-6-yl)amino)pyrimidin-2-yl)ethynyl)piperidin-1-yl)-2-(2,6-dioxopiperidin-3-yl)isoindoline-1,3-dione] was run?
**A.** ≥ 100 nM

**Q.** Which Dmax (T47D cells) does the source give for `CNC(=O)COc1cc2cc(Nc3nc(N4CCC(CN5CCC6(CC5)CN(c5cccc7c5C(=O)N(C5CCC(=O)NC5=O)C7=O)C6)CC4)ncc3Cl)ccc2n(C(C)C)c1=O` (stereo not shown) [compound 418, 2-{[6-({5-chloro-2-[4-({2-[2-(2,6-dioxopiperidin-3-yl)-1,3-dioxo-2,3-dihydro-1H-isoindol-4-yl]-2,7-diazaspiro[3.5]nonan-7-yl}methyl)piperidin-1-yl]pyrimidin-4-yl}amino)-2-oxo-1-(propan-2-yl)-1,2-dihydroquinolin-3-yl]oxy}-N-methylacetamide] here?
**A.** ≥ 70%

**Q.** What about the IC50 (T47D cells) of the same molecule?
**A.** < 10 nM

**Q.** Which Dmax (T47D cells) does the source give for `CNC(=O)COc1cc2cc(Nc3nc(N4CCO[C@H](COc5ccc(C(=O)NC6CCC(=O)NC6=O)nc5)C4)ncc3Cl)ccc2n(C(C)C)c1=O` (stereo partly drawn) [compound 349, 5-{[(2S)-4-[5-chloro-4-({3-[(methylcarbamoyl)methoxy]-2-oxo-1-(propan-2-yl)-1,2-dihydroquinolin-6-yl}amino)pyrimidin-2-yl]morpholin-2-yl]methoxy}-N-(2,6-dioxopiperidin-3-yl)pyridine-2-carboxamide] here?
**A.** < 50%

**Q.** And the IC50 (T47D cells)?
**A.** ≥ 100 nM

**Q.** `CNC(=O)COc1cc2cc(Nc3nc(N4CCC(CN5CCC(c6ccc7c(c6)C(=O)N(C6CCC(=O)NC6=O)C7=O)CC5)CC4)ncc3Cl)ccc2n(C)c1=O` (stereo not shown) [compound 289, 2-{[6-({5-chloro-2-[4-({4-[2-(2,6-dioxopiperidin-3-yl)-1,3-dioxo-2,3-dihydro-1H-isoindol-5-yl]piperidin-1-yl}methyl)piperidin-1-yl]pyrimidin-4-yl}amino)-1-methyl-2-oxo-1,2-dihydroquinolin-3-yl]oxy}-N-methylacetamide] was tested. Which IC50 did it give?
**A.** 10 to 50 nM

**Q.** And the Dmax (T47D)?
**A.** ≥ 70%

**Q.** With `CNC(=O)COc1cc2cc(Nc3nc(N4CCC(OCCOCCOCCCOc5ccc6c(c5)CN(C5CCC(=O)NC5=O)C6=O)CC4)ncc3Cl)ccc2n(C)c1=O` (stereo not shown) [compound 146, 2-((6-((5-chloro-2-(4-(2-(2-(3-((2-(2,6-dioxopiperidin-3-yl)-1-oxoisoindolin-5-yl)oxy)propoxy)ethoxy)ethoxy)piperidin-1-yl)pyrimidin-4-yl)amino)-1-methyl-2-oxo-1,2-dihydroquinolin-3-yl)oxy)-N-methylacetamide] as the molecule, how does the DC50 read?
**A.** > 100 nM

**Q.** `CCn1c(=O)c(OCC(=O)NC)cc2cc(Nc3nc(N4CCC(OC5CC6(C5)CN(c5ccc7c(c5)C(=O)N(C5CCC(=O)NC5=O)C7=O)C6)CC4)ncc3Cl)ccc21` (stereo not shown) [compound 303, 2-{[6-({5-chloro-2-[4-({2-[2-(2,6-dioxopiperidin-3-yl)-1,3-dioxo-2,3-dihydro-1H-isoindol-5-yl]-2-azaspiro[3.3]heptan-6-yl}oxy)piperidin-1-yl]pyrimidin-4-yl}amino)-1-ethyl-2-oxo-1,2-dihydroquinolin-3-yl]oxy}-N-methylacetamide] was tested. Which IC50 did it give?
**A.** < 10 nM

**Q.** What about the Dmax (T47D) of the same molecule?
**A.** 50 to 70%
